Earlier results on one compound are cited in patent publication US20070059371A1, “Nanoparticulate ebastine formulations” (Elan Pharma International, Limited, priority 2005, published 2007).

Structures are written as SMILES.

For series [1] the following is noted: mainly as conjugated metabolites.

Turning to `CC(C)(C)c1ccc(C(=O)CCCN2CCC(OC(c3ccccc3)c3ccccc3)CC2)cc1` [Ebastine, 4′-tert-butyl-4-[4-(diphenylmethoxy)piperidino]butyrophenone], the solubility in water result is “not very soluble in water”. Moreover, the “excreted in the urine” value in series [1] was 66%.
